# Test results as given in PubChem BioAssay (NCI).
#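 Briefly, cells in 96-well plates were exposed to five compound concentrations for 48 h, and endpoints were estimated by linear interpolation. At the GI50, growth is halved. Definition used: TGI = concentration required for complete inhibition of growth.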
# Tests used:
# Experiment in all cases: DTP human tumour cell line panel, 48 h
# NCI-H522 lung = test system: NCI-H522 lung
# PC-3 prostate = test system: PC-3 prostate
# SF-295 CNS = test system: SF-295 CNS
# M14 melanoma = test system: M14 melanoma
# EKVX NSCLC = test system: EKVX NSCLC
# T-47D breast = test system: T-47D breast
# NCI-H226 lung = test system: NCI-H226 lung
# LOX IMVI melanoma = test system: LOX IMVI melanoma
# HCT-116 colon = test system: HCT-116 colon
# SF-539 CNS = test system: SF-539 CNS
Structure (SMILES),TGI (NCI-H522 lung) [µM],TGI (PC-3 prostate) [µM],TGI (SF-295 CNS) [µM],TGI (M14 melanoma) [µM],TGI (EKVX NSCLC) [µM],TGI (T-47D breast) [µM],TGI (NCI-H226 lung) [µM],TGI (LOX IMVI melanoma) [µM],TGI (HCT-116 colon) [µM],TGI (SF-539 CNS) [µM],GI50 (HCT-116 colon) [µM],GI50 (NCI-H522 lung) [µM],GI50 (PC-3 prostate) [µM],GI50 (SF-539 CNS) [µM],GI50 (SF-295 CNS) [µM],GI50 (M14 melanoma) [µM],GI50 (EKVX NSCLC) [µM],GI50 (T-47D breast) [µM],GI50 (NCI-H226 lung) [µM],GI50 (LOX IMVI melanoma) [µM]
c1ccc2c(c1)c1ccccc1n2Cn1c2ccccc2c2ccccc21,> 100,> 100,> 100,> 100,> 100,> 100,> 100,> 100,,,,,,,,,,,,
CCOC(=O)/C=C/c1c(C)[nH]c(=O)[nH]c1=O,> 250,,> 250,,> 250,,> 250,> 250,> 250,> 250,,,,,,,,,,
O=C(NN1C(=O)C(Cl)C1c1cccc([N+](=O)[O-])c1)c1ccccc1O (stereo unspecified),> 100,,> 100,> 100,> 100,,,,> 100,> 100,,,,,,,,,,
CCOC(=O)NC(Nc1cc(Cl)ccc1OC)(C(F)(F)F)C(F)(F)F,> 100,,,> 100,> 100,> 100,> 100,> 100,> 100,> 100,,,,,,,,,,
C/C(=N\NC(=S)N1CCC(N2CCCCC2)CC1)c1ccccn1,0.646,10.3,7.12,3.8,12.1,7.01,,8.28,7.02,8.36,,,,,,,,,,
O=C1CCC[C@H]2O[C@@H](COC(=O)c3ccccc3)C[C@H]2O1,,> 100,> 100,> 100,> 100,> 100,> 100,,,> 100,,,,,,,,,,
O=C1C(CO)=C[C@H](O)[C@H]2O[C@@H]12,164,,177,,215,,371,> 393,225,> 562,,,,,,,,,,
Cc1ccc(Cl)cc1N=NC(=O)NNc1cc(Cl)ccc1C,27.6,46.3,> 100,34.7,,> 100,43.1,,51.6,,,,,,,,,,,
CCOc1cc(/C=C/C(=O)C(C(=O)/C=C/c2ccc(OC(=O)CNc3nc4ccccc4[nH]3)c(OCC)c2)C(=O)CNc2nc3ccccc3[nH]2)ccc1OC(=O)CNc1nc2ccccc2[nH]1,12.5,6.23,22.7,6.76,5.37,14.9,5.67,3.02,4.84,3.1,1.63,3.29,2.12,1.61,7.86,2.14,1.99,2.86,2.07,1.66
O=C(N/N=C\c1cccc2ccccc12)Nc1ccccc1,,> 100,> 100,> 100,,> 100,> 100,> 100,> 100,,,,,,,,,,,
c1cc2c3c(c1)c1cc4c(cc1c[n+]3CC2)OCO4,10.1,,13.1,,14.4,,4.69,> 96.1,75.9,15.4,,,,,,,,,,
COc1cc(-c2ccc(N=Nc3ccc4c(S(=O)(=O)O)cc(S(=O)(=O)O)c(N)c4c3O)c(OC)c2)ccc1N=Nc1ccc2c(S(=O)(=O)O)cc(S(=O)(=O)O)c(N)c2c1O,> 100,,> 100,,> 100,,> 100,> 100,> 100,> 100,,,,,,,,,,
COc1cccc2c1C(=O)c1c(O)c3c(c(O)c1C2=O)C[C@@](O)(C(=O)COC(=O)c1ccccc1)C[C@@H]3OC1CC(N)C(O)C(C)O1 (stereo partly specified),,0.744,,1.35,,,,,,1.13,,,0.194,0.254,,0.21,,,,
